From patent publication US8796259B2, “N3-heteroaryl substituted triazoles and N5-heteroaryl substituted triazoles useful as axl inhibitors” (Rigel Pharmaceuticals, Inc., priority 2006, dated 2014)

biological target: T1, Axl (Homo sapiens, UniProt P30530); assay: Phospho-Akt in-cell Western assay (inhibition of Axl activity, Axl-antibody cross-linking stimulation); format: cell-based; details: Hela cells, phospho-Akt readout; compounds of formula (Ia), Table 1
T1 construct: endogenous in cells; host or cells: HeLa cells
T1 sequence (P30530 26-894): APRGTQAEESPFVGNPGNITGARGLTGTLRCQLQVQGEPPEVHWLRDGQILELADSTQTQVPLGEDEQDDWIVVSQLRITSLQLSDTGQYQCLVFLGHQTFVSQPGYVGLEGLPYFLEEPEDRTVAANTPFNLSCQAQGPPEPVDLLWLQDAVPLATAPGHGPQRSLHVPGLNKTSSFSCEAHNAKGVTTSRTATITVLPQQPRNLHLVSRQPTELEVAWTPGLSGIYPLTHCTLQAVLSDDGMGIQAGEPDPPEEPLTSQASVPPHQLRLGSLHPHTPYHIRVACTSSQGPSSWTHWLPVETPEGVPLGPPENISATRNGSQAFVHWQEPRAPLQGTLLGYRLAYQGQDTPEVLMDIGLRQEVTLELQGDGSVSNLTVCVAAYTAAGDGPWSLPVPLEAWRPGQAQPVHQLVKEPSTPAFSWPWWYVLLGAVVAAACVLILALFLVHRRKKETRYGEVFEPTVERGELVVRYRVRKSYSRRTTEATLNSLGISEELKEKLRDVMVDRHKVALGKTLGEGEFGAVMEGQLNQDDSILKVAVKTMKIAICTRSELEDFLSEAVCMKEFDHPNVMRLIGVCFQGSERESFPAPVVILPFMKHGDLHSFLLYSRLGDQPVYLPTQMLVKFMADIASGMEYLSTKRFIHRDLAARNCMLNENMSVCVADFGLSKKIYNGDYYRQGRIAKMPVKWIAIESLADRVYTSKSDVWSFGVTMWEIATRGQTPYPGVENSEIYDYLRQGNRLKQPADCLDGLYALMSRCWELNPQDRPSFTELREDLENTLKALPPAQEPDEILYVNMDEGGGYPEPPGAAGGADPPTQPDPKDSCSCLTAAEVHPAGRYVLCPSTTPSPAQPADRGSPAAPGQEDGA
Summary of the method: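 HeLa cells on poly-L-lysine were starved 24 h in 0.5% FCS/DMEM with 500 ng/mL Axl/Fc, pre-treated with compound 1 h at 37 °C, then stimulated 5 min by cross-linked mouse anti-Axl/biotin anti-mouse antibody clusters. After formaldehyde fixation, phospho-Akt was detected by rabbit anti-phospho-Akt and HRP secondary with chemiluminescence read-out.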

How did the IC50 turn out when `COc1cc2ncnc(-n3nc(Nc4cnc(N5CCC(CN6CCCCC6)CC5)nc4)nc3N)c2cc1OC` [compound 63, 1-(6,7-dimethoxy-quinazoline-4-yl)-N^3-(2-(4-piperidin-1-ylmethyl-piperidin-1-yl)pyrimidin-5-yl)-1H-1,2,4-triazole-3,5-diamine] was run?
Its IC50 is 1000 to 10000 nM.

Which IC50 does the source give for `Cc1csc2c(-n3nc(Nc4cnc5c(c4)C4CC(N6CCCC6)CC4C5)nc3N)nc(Cl)nc12` (stereo not shown) [compound 64, 1-(2-chloro-7-methylthieno [3,2-d]pyrimidin-4-yl)-N^3-(6-(pyrrolidin-1-yl)-4b,5,6,7,7a,8-hexahydro-pentaleno[2,1-b]pyridin-3-yl)-1H-1,2,4-triazole-3,5-diamine] here?
The IC50 was under 1000 nM.

For `COc1cc2ncnc(-n3nc(Nc4ccc(C=CCN5CCC(N6CCN(C)CC6)CC5)nc4)nc3N)c2cc1OC` [compound 65, 1-(6,7-dimethoxy-quinazoline-4-yl)-N^3-(6-(3-(4-(4-methyl-piperazin-1-yl)piperidin-1-yl)propenyl)pyridin-3-yl)-1H-1,2,4-triazole-3,5-diamine], which IC50 is on record?
The IC50 was under 1000 nM.

`Cc1csc2c(-n3nc(Nc4cnc5c(c4)CC(N4CCN(C)CC4)CC5)nc3N)nc(Cl)nc12` (stereo not shown) [compound 66, 1-(2-chloro-7-methylthieno [3,2-d]pyrimidin-4-yl)-N^3-(6-(4-methyl-piperazin-1-yl)-5,6,7,8-tetrahydro-quinolin-3-yl)-1H-1,2,4-triazole-3,5-diamine] was tested. Which IC50 did it give?
Its IC50 is under 1000 nM.

For `COc1cc2ncnc(-n3nc(Nc4ccc(C=CCN5CCC(N6CCCCC6)CC5)nc4)nc3N)c2cc1OC` [compound 67, 1-(6,7-dimethoxy-quinazoline-4-yl)-N^3-(6-(3-(4-piperidin-1-ylpiperidin-1-yl)propenyl)pyridin-3-yl)-1H-1,2,4-triazole-3,5-diamine], which IC50 is on record?
Its IC50 is under 1000 nM.

Which IC50 does the source give for `Cc1csc2c(-n3nc(Nc4ccc(N5CCN(C6CC6)CC5)nc4)nc3N)nc(Cl)nc12` [compound 68, 1-(2-chloro-7-methylthieno [3,2-d]pyrimidin-4-yl)-N^3-(6-(4-cyclopropyl-piperazin-1-yl)pyridin-3-yl)-1H-1,2,4-triazole-3,5-diamine] here?
The IC50 was under 1000 nM.

`COc1cc2ncnc(-n3nc(Nc4ccc(C=CCN5CCC(N(C)C)CC5)nc4)nc3N)c2cc1OC` [compound 69, 1-(6,7-dimethoxy-quinazoline-4-yl)-N^3-(6-(3-(4-dimethyl-amino-piperidin-1-yl)propenyl)pyridin-3-yl)-1H-1,2,4-triazole-3,5-diamine] was tested. Which IC50 did it give?
The IC50 was under 1000 nM.

`Cc1csc2c(-n3nc(Nc4cnc5c(c4)CC(NC4CCCC4)CC5)nc3N)nc(Cl)nc12` (stereo not shown) [compound 70, 1-(2-chloro-7-methylthieno [3,2-d]pyrimidin-4-yl)-N^3-(6-cyclopentyl-amino-5,6,7,8-tetrahydro-quinolin-3-yl)-1H-1,2,4-triazole-3,5-diamine] was tested. Which IC50 did it give?
Its IC50 is under 1000 nM.

How did the IC50 turn out when `Cc1cc(Nc2nc(N)n(-c3nc(Cl)nc4c(C)csc34)n2)cnc1N1CCN(C2CC3CCC2C3)CC1` (stereo not shown) [compound 71, 1-(2-chloro-7-methylthienò [3,2-d]pyrimidine-4-yl)-N^3-(5-methyl-6-(4-bicyclo[2.2.1]heptan-2-ylpiperazin-1-yl)pyridine-3-yl)-1H-1,2,4-triazole-3,5-diamine] was run?
Its IC50 is under 1000 nM.

For `Cc1cc(Nc2nc(N)n(-c3ncnc4c(C)csc34)n2)cnc1N1CCN(C2CC3CCC2C3)CC1` (stereo not shown) [compound 72, 1-(7-methylthieno [3,2-d]pyrimidine-4-yl)-N^3-(5-methyl-6-(4-bicyclo [2.2.1]heptan-2-ylpiperazin-1-yl)pyridine-3-yl)-1H-1,2,4-triazole-3,5-diamine], which IC50 is on record?
Its IC50 is under 1000 nM.

`Cc1csc2c(-n3nc(Nc4ccc(N5CCN([C@H]6C[C@@H]7CC[C@H]6C7)CC5)nc4)nc3N)ncnc12` [compound 73, 1-(7-methylthieno [3,2-d]pyrimidine-4-yl)-N^3-(6-(4-((1S,2S,4R)-bicyclo[2.2.1]heptan-2-yl)piperazin-1-yl)pyridin-3-yl)-1H-1,2,4-triazole-3,5-diamine] was tested. Which IC50 did it give?
Its IC50 is under 1000 nM.

How did the IC50 turn out when `Cc1csc2c(-n3nc(Nc4cnc5c(c4)CCC(N4CCCC4)CC5)nc3N)nc(Cl)nc12` (stereo not shown) [compound 77, 1-(2-chloro-7-methylthieno [3,2-d]pyrimidine-4-yl)-N^3-(7-(pyrrolidin-1-yl)-6,7,8,9-tetrahydro-5H-cyclohepta[b]pyridin-3-yl)-1H-1,2,4-triazole-3,5-diamine] was run?
The IC50 was under 1000 nM.

With `CCN(CC)C1CCN(CC=Cc2ccc(Nc3nc(N)n(-c4ncnc5cc(OC)c(OC)cc45)n3)cn2)C1` (stereo not shown) [compound 78, 1-(6,7-dimethoxy-quinazoline-4-yl)-N^3-(6-(3-(3-(diethylamino)pyrrolidin-1-yl)propenyl)pyridin-3-yl)-1H-1,2,4-triazole-3,5-diamine] as the compound, how does the IC50 read?
The IC50 was under 1000 nM.

`COc1cc2ncnc(-n3nc(Nc4ccc(C=CCN5CCC(N(C)C)C5)nc4)nc3N)c2cc1OC` (stereo not shown) [compound 79, 1-(6,7-dimethoxy-quinazoline-4-yl)-N^3-(6-(3-(3-(dimethyl-amino)pyrrolidin-1-yl)propenyl)pyridin-3-yl)-1H-1,2,4-triazole-3,5-diamine] was tested. Which IC50 did it give?
Its IC50 is under 1000 nM.

How did the IC50 turn out when `COc1cc2ncnc(-n3nc(Nc4ccc(C=CCN5CCCCC5)nc4)nc3N)c2cc1OC` [compound 80] was run?
The IC50 was under 1000 nM.

With `COc1cc2ncnc(-n3nc(Nc4ccc(C=CCN5CCC(N6CCCC6)CC5)nc4)nc3N)c2cc1OC` [compound 81, 1-(6,7-dimethoxy-quinazoline-4-yl)-N^3-(6-(3-(4-pyrrolidin-1-ylpiperidin-1-yl)propenyl)pyridin-3-yl)-1H-1,2,4-triazole-3,5-diamine] as the compound, how does the IC50 read?
The IC50 was under 1000 nM.

How did the IC50 turn out when `Cc1csc2c(-n3nc(Nc4cnc5c(c4)CC(N4CCCC4)CC5)nc3N)nc(Cl)nc12` (stereo not shown) [compound 82, 1-(2-chloro-7-methylthieno [3,2-d]pyrimidin-4-yl)-N^3-(6-pyrrolidin-1-yl-5,6,7,8-tetrahydro-quinolin-3-yl)-1H-1,2,4-triazole-3,5-diamine] was run?
The IC50 was under 1000 nM.

`Cc1csc2c(-n3nc(Nc4ccc(C5CCN(C6CC7CCC6C7)CC5)nc4)nc3N)nc(Cl)nc12` (stereo not shown) [compound 83, 1-(2-chloro-7-methylthieno [3,2-d]pyrimidine-4-yl)-N^3-(6-(1-bicyclo[2.2.1]heptan-2-ylpiperidin-4-yl)pyridine-3-yl)-1H-1,2,4-triazole-3,5-diamine] was tested. Which IC50 did it give?
The IC50 was under 1000 nM.

With `Cc1csc2c(-n3nc(Nc4cnc5c(c4)CC(NC4CCN(C)CC4)CC5)nc3N)ncnc12` (stereo not shown) [compound 84, 1-(7-methylthieno [3,2-d]pyrimidin-4-yl)-N^3-(6-(1-methyl-piperidin-4-ylamino)-5,6,7,8-tetrahydro-quinolin-3-yl)-1H-1,2,4-triazole-3,5-diamine] as the compound, how does the IC50 read?
The IC50 was under 1000 nM.

How did the IC50 turn out when `Cc1csc2c(-n3nc(Nc4cnc5c(c4)CC(N4CCCC4)CC5)nc3N)ncnc12` (stereo not shown) [compound 85, 1-(7-methylthieno [3,2-d]pyrimidin-4-yl)-N^3-(6-pyrrolidin-1-yl-5,6,7,8-tetrahydro-quinolin-3-yl)-1H-1,2,4-triazole-3,5-diamine] was run?
The IC50 was under 1000 nM.

For `Cc1csc2c(-n3nc(Nc4cnc5c(c4)CN(C4CCN(C)CC4)CC5)nc3N)nc(Cl)nc12` [compound 86, 1-(2-chloro-7-methylthieno [3,2-d]pyrimidine-4-yl)-N^3-(6-(1-methyl-piperidin-4-yl)-5,6,7,8-tetrahydro-1,6-naphthyridin-3-yl)-1H-1,2,4-triazole-3,5-diamine], which IC50 is on record?
Its IC50 is under 1000 nM.

For `Cc1csc2c(-n3nc(Nc4cnc5c(c4)CN(C(=O)C4CCNCC4)CC5)nc3N)nc(Cl)nc12` [compound 87, 1-(2-chloro-7-methylthieno [3,2-d]pyrimidin-4-yl)-N^3-(6-(piperidin-4-ylcarbonyl)-5,6,7,8-tetrahydro-1,6-naphthyridin-3-yl)-1H-1,2,4-triazole-3,5-diamine], which IC50 is on record?
Its IC50 is over 20000 nM.

Which IC50 does the source give for `Cc1csc2c(-n3nc(Nc4ccc(C5CCN(C6CC7CCC6C7)CC5)nc4)nc3N)ncnc12` (stereo not shown) [compound 88, 1-(7-methylthieno [3,2-d]pyrimidine-4-yl)-N^3-(6-(1-bicyclo [2.2.1]heptan-2-ylpiperidin-4-yl)pyridine-3-yl)-1H-1,2,4-triazole-3,5-diamine] here?
Its IC50 is under 1000 nM.

For `Cc1csc2c(-n3nc(Nc4ccc(N5CCN(CC6CC6)CC5)nc4)nc3N)ncnc12` [compound 89, 1-(7-methylthieno [3,2-d]pyrimidine-4-yl)-N^3-(6-(4-(cyclopropyl-methyl)piperazin-1-yl)pyridine-3-yl)-1H-1,2,4-triazole-3,5-diamine], which IC50 is on record?
The IC50 was under 1000 nM.

`COc1cc2ncnc(-n3nc(Nc4ccc(C=CCN5CCN(C6CCCC6)CC5)nc4)nc3N)c2cc1OC` [compound 90, 1-(6,7-dimethoxy-quinazoline-4-yl)-N^3-(6-(3-(4-cyclopentyl-piperazin-1-yl)propenyl)pyridin-3-yl)-1H-1,2,4-triazole-3,5-diamine] was tested. Which IC50 did it give?
Its IC50 is under 1000 nM.
